Results reported in patent US7932270B2 (Cytokinetics, Inc., priority 2006, dated 2011).

Target: T1, chicken gizzard smooth muscle myosin subfragment-1 chemically crosslinked to cardiac or skeletal actin (Gallus gallus, UniProt P10587)
T1 construct: chicken gizzard smooth muscle myosin subfragment-1; from tissue; host or cells: chicken gizzard
Test: Smooth muscle myosin ATPase dose response assay (pyruvate kinase/horseradish peroxidase/pyruvate oxidase-coupled, amplex red fluorescence)
Assay type: biochemical
Details: read-out: IC50 Arithmetic Mean
How it was run: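 EDC/NHS-crosslinked S1–actin, amount set per prep by rate titration. Buffer: 12 mM K-PIPES pH 7.00 (22° C), 100 mM KCl, 2 mM MgCl2, 0.15 mM ATP, 0.1 mM PEP, 2 mM KPi, 0.1 mM amplex red. Read ex 480/em 615 nm; IC50 = midpoint, 4-param Hill fit.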

T1 sequence (P02607 2-151): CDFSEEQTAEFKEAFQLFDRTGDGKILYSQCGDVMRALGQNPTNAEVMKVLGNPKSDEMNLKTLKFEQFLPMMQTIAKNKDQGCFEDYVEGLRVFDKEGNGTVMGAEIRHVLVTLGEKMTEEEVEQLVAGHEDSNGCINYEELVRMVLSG
T1 sequence (P10587 84-789): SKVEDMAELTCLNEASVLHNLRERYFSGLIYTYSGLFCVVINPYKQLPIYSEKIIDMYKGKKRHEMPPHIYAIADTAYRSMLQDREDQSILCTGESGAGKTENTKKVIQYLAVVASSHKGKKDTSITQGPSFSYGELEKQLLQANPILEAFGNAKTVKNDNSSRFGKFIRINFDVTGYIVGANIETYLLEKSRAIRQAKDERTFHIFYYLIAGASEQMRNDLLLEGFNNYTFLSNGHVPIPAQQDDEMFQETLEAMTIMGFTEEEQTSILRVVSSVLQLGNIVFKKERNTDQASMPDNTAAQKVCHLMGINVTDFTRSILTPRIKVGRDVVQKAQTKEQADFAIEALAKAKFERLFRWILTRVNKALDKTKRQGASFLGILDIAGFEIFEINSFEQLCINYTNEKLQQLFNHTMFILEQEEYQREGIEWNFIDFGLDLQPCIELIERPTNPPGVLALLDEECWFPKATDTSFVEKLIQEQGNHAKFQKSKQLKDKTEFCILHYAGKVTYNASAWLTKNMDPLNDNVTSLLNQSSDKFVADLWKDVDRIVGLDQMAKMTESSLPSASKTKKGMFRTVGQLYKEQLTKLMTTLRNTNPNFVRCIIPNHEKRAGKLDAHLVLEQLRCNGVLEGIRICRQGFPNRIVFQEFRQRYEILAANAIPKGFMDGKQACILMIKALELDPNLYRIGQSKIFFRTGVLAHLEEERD

IC50 [µM] | SMILES
0.161 | N#Cc1ccccc1-c1ccc(C(=O)NC[C@H]2CCCCN2C(=O)[C@H](N)CN)c(NCCc2cccc(F)c2)n1 [N-{[(2R)-1-((2R)-2,3-diaminopropanoyl)(2-piperidyl)]methyl}(6-(2-cyanophenyl)-2-{[2-(3-fluorophenyl)ethyl]amino}(3-pyridyl))carboxamide]
17.2 | CC(=O)N1CCN(C(C)=O)[C@@H](CNC(=O)c2ccc(-c3ccccc3C#N)nc2NCCc2cccc(F)c2)C1 [N-[((2S)-1,4-diacetylpiperazin-2-yl)methyl](6-(2-cyanophenyl)-2-{[2-(3-fluorophenyl)ethyl]amino}(3-pyridyl))carboxamide]
13.6 | Cc1ccc(C)c(-c2ccc(C(=O)NCc3cccnc3)c(NCCc3ccccn3)n2)c1 [{6-(2,5-dimethylphenyl)-2-[(2-(2-pyridyl)ethyl)amino](3-pyridyl)}-N-(3-pyridylmethyl)carboxamide]
0.705 | N#Cc1ccccc1-c1ccc(C(=O)NC[C@H]2CCCN2CCN)c(NCCc2cccc(F)c2)n1 [N-{[(2R)-1-(2-aminoethyl)pyrrolidin-2-yl]methyl}(6-(2-cyanophenyl)-2-{[2-(3-fluorophenyl)ethyl]amino}(3-pyridyl))carboxamide]
1.23 | Cc1cc(C(=O)NC[C@H]2CCC(=O)N2CCCN)c(NCCc2cccc(F)c2)nc1-c1ccccc1C#N [N-{[(2R)-1-(3-aminopropyl)-5-oxopyrrolidin-2-yl]methyl}(6-(2-cyanophenyl)-2-{[2-(3-fluorophenyl)ethyl]amino}-5-methyl(3-pyridyl))carboxamide]
16.4 | N#CCc1ccccc1-c1ccc(C(=O)NCc2cccnc2)c(NCCc2cccc(F)c2)n1 [(6-[2-(cyanomethyl)phenyl]-2-{[2-(3-fluorophenyl)ethyl]amino}(3-pyridyl))-N-(3-pyridylmethyl)carboxamide]
2.07 | N#Cc1ccccc1-c1ccc(C(=O)NCC(=O)NCCO)c(NCCc2cccc(F)c2)n1 [2-[(6-(2-cyanophenyl)-2-{[2-(3-fluorophenyl)ethyl]amino}(3-pyridyl))carbonylamino]-N-(2-hydroxyethyl)acetamide]
3.56 | CN(C)C(=O)CCNc1nc(-c2ccccc2C#N)ccc1C(=O)NC[C@H]1CCCN1C(=O)CCCN [3-{[3-(N-{[(2R)-1-(4-aminobutanoyl)pyrrolidin-2-yl]methyl}carbamoyl)-6-(2-cyanophenyl)(2-pyridyl)]amino}-N,N-dimethylpropanamide]
1.26 | Cn1cc(-c2nc(NCCc3cccc(F)c3)c(C(=O)NC[C@@H](N)CO)cc2F)cn1 [N-((2R)-2-amino-3-hydroxypropyl)(5-fluoro-2-{[2-(3-fluorophenyl)ethyl]amino}-6-(1-methylpyrazol-4-yl)(3-pyridyl))carboxamide]
0.133 | N#Cc1ccccc1-c1ccc(C(=O)NC[C@@H]2CCC(=O)N2)c(NCCc2cccc(F)c2)n1 [N-[((2S)-5-oxopyrrolidin-2-yl)methyl](6-(2-cyanophenyl)-2-{[2-(3-fluorophenyl)ethyl]amino}(3-pyridyl))carboxamide]
15.7 | CN1CCNC[C@@H]1CNC(=O)c1ccc(-c2ccccc2C#N)nc1NCCc1cccc(F)c1 [N-[((2R)-1-methylpiperazin-2-yl)methyl](6-(2-cyanophenyl)-2-{[2-(3-fluorophenyl)ethyl]amino}(3-pyridyl))carboxamide]
0.024 | N#Cc1ccccc1-c1ccc(C(=O)NCc2ccccc2CN)c(NCCc2cccc(F)c2)n1 [N-{[2-(aminomethyl)phenyl]methyl}(6-(2-cyanophenyl)-2-{[2-(3-fluorophenyl)ethyl]amino}(3-pyridyl))carboxamide]
0.139 | O=C(NCc1cccnc1)c1ccc(-c2ccccc2F)nc1NCCc1cccc(F)c1 [(6-(2-fluorophenyl)-2-{[2-(3-fluorophenyl)ethyl]amino}(3-pyridyl))-N-(3-pyridylmethyl)carboxamide]
15.5 | COC(=O)c1cc(Cl)c(-c2cnn(C)c2)nc1NCCc1cccc(F)c1 [methyl 5-chloro-2-{[2-(3-fluorophenyl)ethyl]amino}-6-(1-methylpyrazol-4-yl)pyridine-3-carboxylate]
0.577 | Cc1cc(C(=O)NC[C@H]2CCC(=O)N2CCCN)c(NCCc2cccc(F)c2)nc1-c1cnn(C)c1 [N-{[(2R)-1-(3-aminopropyl)-5-oxopyrrolidin-2-yl]methyl}(2-{[2-(3-fluorophenyl)ethyl]amino}-5-methyl-6-(1-methylpyrazol-4-yl)(3-pyridyl))carboxamide]
0.124 | O=C(NCc1cccnc1)c1ccc(-c2cc[nH]n2)nc1NCCc1cccc(F)c1 [(2-{[2-(3-fluorophenyl)ethyl]amino}-6-pyrazol-3-yl(3-pyridyl))-N-(3-pyridylmethyl)carboxamide]
0.288 | O=C(NCc1cccnc1)c1ccc(-c2ccccc2)nc1NCCc1c(F)cccc1F [(2-{[2-(2,6-difluorophenyl)ethyl]amino}-6-phenyl(3-pyridyl))-N-(3-pyridylmethyl)carboxamide]
0.006 | N#Cc1ccccc1-c1ccc(C(=O)NCc2cccnc2CN)c(NCCc2cccc(F)c2)n1 [N-{[2-(aminomethyl)(3-pyridyl)]methyl}(6-(2-cyanophenyl)-2-{[2-(3-fluorophenyl)ethyl]amino}(3-pyridyl))carboxamide]
0.066 | Cn1cc(-c2nc(NCCc3cccc(F)c3)c(C(=O)NC[C@H]3CCCN3C(=O)CN)cc2F)cn1 [N-{[(2R)-1-(2-aminoacetyl)pyrrolidin-2-yl]methyl}(5-fluoro-2-{[2-(3-fluorophenyl)ethyl]amino}-6-(1-methylpyrazol-4-yl)(3-pyridyl))carboxamide]
2.25 | O=C(NCc1cccnc1)c1ccc(-c2sccc2CO)nc1NCCc1cccc(F)c1 [(2-{[2-(3-fluorophenyl)ethyl]amino}-6-[3-(hydroxymethyl)(2-thienyl)](3-pyridyl))-N-(3-pyridylmethyl)carboxamide]
59.1 | O=C(NCc1cccnc1)c1c(CO)cc(-c2ccccc2)nc1NCCc1cccc(F)c1 [(2-{[2-(3-fluorophenyl)ethyl]amino}-4-(hydroxymethyl)-6-phenyl(3-pyridyl))-N-(3-pyridylmethyl)carboxamide]

SMILES | IC50 [µM]
Cn1cc(-c2nc(NCCc3cccc(F)c3)c(C(=O)NCc3cccnc3CNC(=O)OC(C)(C)C)cc2F)cn1 [N-[(2-{[(tert-butoxy)carbonylamino]methyl}(3-pyridyl))methyl](5-fluoro-2-{[2-(3-fluorophenyl)ethyl]amino}-6-(1-methylpyrazol-4-yl)(3-pyridyl))carboxamide] | 0.388
CC(C)(C)OC(=O)NCCC(=O)N1CCC[C@@H]1CNC(=O)c1cc(F)c(-c2ccccc2C#N)nc1NCCc1cccc(F)c1 [N-[((2R)-1-{3-[(tert-butoxy)carbonylamino]propanoyl}pyrrolidin-2-yl)methyl](6-(2-cyanophenyl)-5-fluoro-2-{[2-(3-fluorophenyl)ethyl]amino}(3-pyridyl))carboxamide] | 2.77
CC(C)(C)OC(=O)NCCCN1C(=O)CC[C@@H]1CNC(=O)c1cc(F)c(-c2cn[nH]c2)nc1NCCc1cccc(F)c1 [N-[((2R)-1-{3-[(tert-butoxy)carbonylamino]propyl}-5-oxopyrrolidin-2-yl)methyl](5-fluoro-2-{[2-(3-fluorophenyl)ethyl]amino}-6-pyrazol-4-yl(3-pyridyl))carboxamide] | 0.354
